Test system: colorectal cancer cell line WiDr
Assay: In vitro survival assay (MTT) for anti-colorectal cancer effects
Assay type: cell-based
Conditions: WiDr human colon adenocarcinoma cells, 48 hours treatment, survival rate
Method: Inhibiting effects of colorectal cancer cells by cyclohexenone compounds of Antrodia camphorata from example 1 were assessed according to the anticancer-drug screening model of National Cancer Institute (NCI). The compound 4-hydroxy-2,3-dimethoxy-6-methyl-5-(3,7,11-trimethyl-dodeca-2,6,10-trienyl)-cyclohex-2-enone from example 1 was added into the culture media of colorectal cancer cell line WiDr to determine the survival rates. Survival of cell was analyzed using MTT assay. WiDr cell line was a human colon adenocarcinoma cell line.
MTT assay is commonly used to analyze cell proliferation, survival rate of viable cells and cytotoxicity. MTT (3[4,5-dimethylthiazol-2-yl]-2,5-diphenyltetrazolium bromide) is a yellow dye which can be converted to water-insoluble purple formazan on the reductive cleavage of its tetrazolium ring by the succinate tetrazolium reductase in mitochondria of cells. The amount of formazan produced is used to detect the number of viable cells and calculate the survival rates.
The WiDr cells were cultivated in RPMI 1640 medium supplemented with 10% fetal bovine serum, 100 IU/ml of Penicillin and […] of Streptomycin at 37° C., 5% CO2 for 24 hours. Proliferated cells were washed once with PBS, treated with 1× trypsin-EDTA, and centrifuged at 1200 rpm for 5 min. […] The absorbances were measured at 570 nm with an ELISA Reader to determine the survival rates.

SMILES: COC1=C(OC)C(O)C(C/C=C(\C)CC/C=C(\C)CCC=C(C)C)C(C)C1=O (stereo not shown) [formula 2, 4-hydroxy-2,3-dimethoxy-6-methyl-5-(3,7,11-trimethyl-dodeca-2,6,10-trienyl)-cyclohex-2-enone]
- IC50: 0.92 µg/mL

— patent publication US20110059123A1, “Inhibition of the Survival of Colorectal Cancer by Cyclohexenone Compounds from Antrodia Camphorata” (GOLDEN BIOTECHNOLOGY CORPORATION, priority 2009, published 2011)
